Columns and labels:
Test in all cases: KinaseProfiler protein kinase activity
Assay type in all cases: biochemical
Details in all cases: 10 μM X-370
[1] = molecular target: T1, CaMKI (Homo sapiens, UniProt Q14012)
T1 construct: purchased Millipore KinaseProfiler
Description: (§1) In vitro kinase profile assays were analyzed by the Kinase Profiler Service (Millipore, United Kingdom) following its guidelines. A GST-tagged human p110δ and regulatory full-length p85 were co-expressed in insect cell Sf9. Recombinant protein was extracted by affinity purification. The PI3K kinase activity was determined in the increasing concentration of ATP and X-370 with PI3-Kinase HTRF™ Assay kit (Millipore) as described previously. […]
(§2) Table S1: Inhibitory activity of X-370 against protein kinases
(§3) kinome at 10 μM. The relative kianse activity left in the presence of 10 μM were shown (Mi llipore
(§4) Kinase activity (% of control) Kinase activity (% of control) Kinase activity (% of control)
(§5) CDK1/cyclinB 97 Lck activated 89 Ret 125

[2] = molecular target: T2, MARK1 (Homo sapiens, UniProt Q9P0L2)
T2 construct: purchased Millipore KinaseProfiler
Description: as §1, §2, §3, §4, §5

[3] = molecular target: T3, IKK α (Homo sapiens, UniProt O15111)
T3 construct: purchased Millipore KinaseProfiler
Description: as §1, §2, §3, §4, §5

[4] = molecular target: T4, PEK (Homo sapiens, UniProt Q9NZJ5)
T4 construct: purchased Millipore KinaseProfiler
Description: as §1, §2, §3, §4, §5

[5] = molecular target: T5, AMPK α1 (Homo sapiens, UniProt Q13131)
T5 construct: purchased Millipore KinaseProfiler
Description: as §1, §2, §3, §4, §5

[6] = molecular target: T6, ASK1 (Homo sapiens, UniProt Q99683)
T6 construct: purchased Millipore KinaseProfiler
Description: as §1, §2, §3, §4, §5

[7] = molecular target: T7, DYRK2 (Homo sapiens, UniProt Q92630)
T7 construct: purchased Millipore KinaseProfiler
Description: as §1, §2, §3, §4, §5

[8] = molecular target: T8, PKA (Homo sapiens, UniProt P17612)
T8 construct: purchased Millipore KinaseProfiler
Description: as §1, §2, §3, §4, §5

[9] = molecular target: T9, PDK1 (Homo sapiens, UniProt O15530)
T9 construct: purchased Millipore KinaseProfiler
Description: as §1, §2, §3, §4, §5

[10] = molecular target: T10, Ret (Homo sapiens, UniProt P07949)
T10 construct: purchased Millipore KinaseProfiler
Description: as §1, §2, §3, §4, §5

[11] = molecular target: T11, Lck activated (Homo sapiens, UniProt P06239)
T11 construct: purchased Millipore KinaseProfiler
Description: as §1, §2, §3, §4, §5

[12] = molecular target: T12, PKC μ (Homo sapiens, UniProt Q15139)
T12 construct: purchased Millipore KinaseProfiler
Description: as §1, §2, §3, §4, §5

[13] = molecular target: T13, Met (Homo sapiens, UniProt P08581)
T13 construct: purchased Millipore KinaseProfiler
Description: as §1, §2, §3, §4, §5

[14] = molecular target: T14, TrkA (Homo sapiens, UniProt P04629)
T14 construct: purchased Millipore KinaseProfiler
Description: as §1, §2, §3, §4, §5

[15] = molecular target: T15, JAK2 (Homo sapiens, UniProt O60674)
T15 construct: purchased Millipore KinaseProfiler
Description: as §1, §2, §3, §4, §5

[16] = molecular target: T16, PKB α (Homo sapiens, UniProt P31749)
T16 construct: purchased Millipore KinaseProfiler
Description: as §1, §2, §3, §4, §5

[17] = molecular target: T17, p70S6K (Homo sapiens, UniProt P23443)
T17 construct: purchased Millipore KinaseProfiler
Description: as §1, §2, §3, §4, §5

[18] = molecular target: T18, PAK2 (Homo sapiens, UniProt Q13177)
T18 construct: purchased Millipore KinaseProfiler
Description: as §1, §2, §3, §4, §5

[19] = molecular target: T19, BTK (Homo sapiens, UniProt Q06187)
T19 construct: purchased Millipore KinaseProfiler
Description: as §1, §2, §3, §4, §5

[20] = molecular target: T20, MEK1 (Homo sapiens, UniProt Q02750)
T20 construct: purchased Millipore KinaseProfiler
Description: as §1, §2, §3, §4, §5

[21] = molecular target: T21, Tie2 (Homo sapiens, UniProt Q02763)
T21 construct: purchased Millipore KinaseProfiler
Description: as §1, §2, §3, §4, §5

[22] = molecular target: T22, PDGFR α (Homo sapiens, UniProt P16234)
T22 construct: purchased Millipore KinaseProfiler
Description: as §1, §2, §3, §4, §5

[23] = molecular target: T23, Rsk1 (Homo sapiens, UniProt Q15418)
T23 construct: purchased Millipore KinaseProfiler
Description: as §1, §2, §3, §4, §5

[24] = system: CK1(y)
Description: as §1, §2, §3, §4, §5

[25] = molecular target: T24, KDR (Homo sapiens, UniProt P35968)
T24 construct: purchased Millipore KinaseProfiler
Description: as §1, §2, §3, §4, §5

[26] = molecular target: T25, IRAK1 (Homo sapiens, UniProt P51617)
T25 construct: purchased Millipore KinaseProfiler
Description: as §1, §2, §3, §4, §5

[27] = molecular target: T26, ROCK-I (Homo sapiens, UniProt Q13464)
T26 construct: purchased Millipore KinaseProfiler
Description: as §1, §2, §3, §4, §5

[28] = molecular target: T27, GSK3 α (Homo sapiens, UniProt P49840)
T27 construct: purchased Millipore KinaseProfiler
Description: as §1, §2, §3, §4, §5

[29] = molecular target: T28, FAK (Homo sapiens, UniProt Q05397)
T28 construct: purchased Millipore KinaseProfiler
Description: as §1, §2, §3, §4, §5

[30] = molecular target: T29, ALK (Homo sapiens, UniProt Q9UM73)
T29 construct: purchased Millipore KinaseProfiler
Description: as §1, §2, §3, §4, §5

[31] = molecular target: T30, Axl (Homo sapiens, UniProt P30530)
T30 construct: purchased Millipore KinaseProfiler
Description: as §1, §2, §3, §4, §5

[32] = molecular target: T31, Syk (Homo sapiens, UniProt P43405)
T31 construct: purchased Millipore KinaseProfiler
Description: as §1, §2, §3, §4, §5

[33] = molecular target: T32, Itk (Homo sapiens, UniProt Q08881)
T32 construct: purchased Millipore KinaseProfiler
Description: as §1, §2, §3, §4, §5

[34] = molecular target: T33, LKB1 (Homo sapiens, UniProt Q15831)
T33 construct: purchased Millipore KinaseProfiler
Description: as §1, §2, §3, §4, §5

T11 sequence (P06239 whole entry): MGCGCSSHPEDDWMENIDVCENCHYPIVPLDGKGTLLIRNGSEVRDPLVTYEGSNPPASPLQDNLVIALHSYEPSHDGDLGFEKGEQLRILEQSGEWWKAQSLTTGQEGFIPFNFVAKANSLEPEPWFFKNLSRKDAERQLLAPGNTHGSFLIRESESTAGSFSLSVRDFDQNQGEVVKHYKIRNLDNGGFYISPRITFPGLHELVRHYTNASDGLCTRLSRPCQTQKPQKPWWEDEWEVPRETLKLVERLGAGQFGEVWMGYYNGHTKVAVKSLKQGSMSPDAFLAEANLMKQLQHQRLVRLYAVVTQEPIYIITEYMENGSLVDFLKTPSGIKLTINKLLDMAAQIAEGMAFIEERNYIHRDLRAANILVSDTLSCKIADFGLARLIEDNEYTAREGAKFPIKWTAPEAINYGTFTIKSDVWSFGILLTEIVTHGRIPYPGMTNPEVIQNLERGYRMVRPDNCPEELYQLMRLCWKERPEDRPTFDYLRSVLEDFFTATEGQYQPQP
T12 sequence (Q15139 whole entry): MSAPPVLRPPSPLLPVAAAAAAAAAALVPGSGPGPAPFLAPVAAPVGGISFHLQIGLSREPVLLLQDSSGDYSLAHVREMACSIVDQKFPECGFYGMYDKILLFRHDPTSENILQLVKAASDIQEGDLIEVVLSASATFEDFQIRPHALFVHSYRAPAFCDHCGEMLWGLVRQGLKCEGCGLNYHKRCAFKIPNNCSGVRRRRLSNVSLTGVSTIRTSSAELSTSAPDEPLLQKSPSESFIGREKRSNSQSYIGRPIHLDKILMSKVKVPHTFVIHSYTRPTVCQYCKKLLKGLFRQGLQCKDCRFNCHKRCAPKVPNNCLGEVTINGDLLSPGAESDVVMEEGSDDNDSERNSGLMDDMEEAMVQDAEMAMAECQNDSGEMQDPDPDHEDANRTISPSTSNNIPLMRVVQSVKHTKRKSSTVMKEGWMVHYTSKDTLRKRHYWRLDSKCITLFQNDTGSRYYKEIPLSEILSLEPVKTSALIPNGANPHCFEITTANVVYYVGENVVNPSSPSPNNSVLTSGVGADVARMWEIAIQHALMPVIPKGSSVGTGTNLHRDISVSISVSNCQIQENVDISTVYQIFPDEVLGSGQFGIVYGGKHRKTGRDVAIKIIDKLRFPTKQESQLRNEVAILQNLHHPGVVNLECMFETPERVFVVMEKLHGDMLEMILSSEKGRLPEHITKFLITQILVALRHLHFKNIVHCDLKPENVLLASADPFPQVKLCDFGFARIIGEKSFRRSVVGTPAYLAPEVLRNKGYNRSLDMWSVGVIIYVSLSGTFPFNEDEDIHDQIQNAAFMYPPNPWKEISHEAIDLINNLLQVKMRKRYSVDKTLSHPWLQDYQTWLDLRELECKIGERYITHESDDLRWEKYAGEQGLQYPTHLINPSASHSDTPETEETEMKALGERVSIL
T24 sequence (P35968 20-1356): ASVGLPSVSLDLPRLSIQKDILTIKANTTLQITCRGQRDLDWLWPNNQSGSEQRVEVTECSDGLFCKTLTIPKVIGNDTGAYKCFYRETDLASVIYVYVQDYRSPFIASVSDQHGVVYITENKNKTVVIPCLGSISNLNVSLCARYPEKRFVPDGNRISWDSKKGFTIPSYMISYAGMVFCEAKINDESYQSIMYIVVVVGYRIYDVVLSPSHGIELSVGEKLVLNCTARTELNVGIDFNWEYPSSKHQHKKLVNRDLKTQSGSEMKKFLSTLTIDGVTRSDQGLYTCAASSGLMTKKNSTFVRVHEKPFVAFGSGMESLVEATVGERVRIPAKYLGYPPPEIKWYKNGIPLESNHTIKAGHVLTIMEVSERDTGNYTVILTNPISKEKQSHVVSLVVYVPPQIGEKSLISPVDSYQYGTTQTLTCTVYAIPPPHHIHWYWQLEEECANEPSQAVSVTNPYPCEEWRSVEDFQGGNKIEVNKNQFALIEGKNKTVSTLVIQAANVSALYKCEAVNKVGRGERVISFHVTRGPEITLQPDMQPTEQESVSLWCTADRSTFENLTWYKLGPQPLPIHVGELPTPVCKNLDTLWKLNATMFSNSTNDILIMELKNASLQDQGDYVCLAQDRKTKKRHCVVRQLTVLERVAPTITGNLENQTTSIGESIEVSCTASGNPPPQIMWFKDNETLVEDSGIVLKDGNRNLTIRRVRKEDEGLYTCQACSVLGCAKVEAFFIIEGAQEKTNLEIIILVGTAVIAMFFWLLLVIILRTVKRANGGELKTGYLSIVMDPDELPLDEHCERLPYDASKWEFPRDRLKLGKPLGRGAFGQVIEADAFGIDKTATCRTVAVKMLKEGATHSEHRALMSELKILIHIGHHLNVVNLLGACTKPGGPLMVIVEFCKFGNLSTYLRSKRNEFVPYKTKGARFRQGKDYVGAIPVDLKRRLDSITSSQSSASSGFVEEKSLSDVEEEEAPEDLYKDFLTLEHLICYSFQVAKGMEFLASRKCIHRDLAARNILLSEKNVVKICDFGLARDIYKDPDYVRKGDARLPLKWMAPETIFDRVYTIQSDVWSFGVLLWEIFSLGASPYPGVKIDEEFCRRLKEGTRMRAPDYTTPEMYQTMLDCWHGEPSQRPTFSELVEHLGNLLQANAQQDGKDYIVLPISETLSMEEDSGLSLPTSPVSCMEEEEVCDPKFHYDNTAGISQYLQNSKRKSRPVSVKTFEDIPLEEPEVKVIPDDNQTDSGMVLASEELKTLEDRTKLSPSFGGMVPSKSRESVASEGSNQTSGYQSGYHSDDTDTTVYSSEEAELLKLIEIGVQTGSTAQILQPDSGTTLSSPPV
T7 sequence (Q92630 whole entry): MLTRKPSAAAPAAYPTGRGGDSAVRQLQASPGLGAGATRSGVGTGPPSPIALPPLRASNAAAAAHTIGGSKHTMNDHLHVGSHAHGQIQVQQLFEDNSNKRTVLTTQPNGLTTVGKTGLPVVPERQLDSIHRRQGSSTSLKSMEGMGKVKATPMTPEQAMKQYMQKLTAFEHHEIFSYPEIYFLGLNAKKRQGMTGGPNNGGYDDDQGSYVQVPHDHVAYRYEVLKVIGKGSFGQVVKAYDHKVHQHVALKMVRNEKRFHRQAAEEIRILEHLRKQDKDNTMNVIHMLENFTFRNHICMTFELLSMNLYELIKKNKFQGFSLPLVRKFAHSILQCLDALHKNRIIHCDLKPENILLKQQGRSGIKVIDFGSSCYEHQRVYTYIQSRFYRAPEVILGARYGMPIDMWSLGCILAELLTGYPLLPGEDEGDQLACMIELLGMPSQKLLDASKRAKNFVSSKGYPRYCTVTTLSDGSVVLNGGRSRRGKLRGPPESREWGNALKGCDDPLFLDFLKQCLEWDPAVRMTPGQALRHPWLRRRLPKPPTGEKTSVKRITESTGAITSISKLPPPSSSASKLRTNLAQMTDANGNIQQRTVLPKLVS
T21 sequence (Q02763 23-1124): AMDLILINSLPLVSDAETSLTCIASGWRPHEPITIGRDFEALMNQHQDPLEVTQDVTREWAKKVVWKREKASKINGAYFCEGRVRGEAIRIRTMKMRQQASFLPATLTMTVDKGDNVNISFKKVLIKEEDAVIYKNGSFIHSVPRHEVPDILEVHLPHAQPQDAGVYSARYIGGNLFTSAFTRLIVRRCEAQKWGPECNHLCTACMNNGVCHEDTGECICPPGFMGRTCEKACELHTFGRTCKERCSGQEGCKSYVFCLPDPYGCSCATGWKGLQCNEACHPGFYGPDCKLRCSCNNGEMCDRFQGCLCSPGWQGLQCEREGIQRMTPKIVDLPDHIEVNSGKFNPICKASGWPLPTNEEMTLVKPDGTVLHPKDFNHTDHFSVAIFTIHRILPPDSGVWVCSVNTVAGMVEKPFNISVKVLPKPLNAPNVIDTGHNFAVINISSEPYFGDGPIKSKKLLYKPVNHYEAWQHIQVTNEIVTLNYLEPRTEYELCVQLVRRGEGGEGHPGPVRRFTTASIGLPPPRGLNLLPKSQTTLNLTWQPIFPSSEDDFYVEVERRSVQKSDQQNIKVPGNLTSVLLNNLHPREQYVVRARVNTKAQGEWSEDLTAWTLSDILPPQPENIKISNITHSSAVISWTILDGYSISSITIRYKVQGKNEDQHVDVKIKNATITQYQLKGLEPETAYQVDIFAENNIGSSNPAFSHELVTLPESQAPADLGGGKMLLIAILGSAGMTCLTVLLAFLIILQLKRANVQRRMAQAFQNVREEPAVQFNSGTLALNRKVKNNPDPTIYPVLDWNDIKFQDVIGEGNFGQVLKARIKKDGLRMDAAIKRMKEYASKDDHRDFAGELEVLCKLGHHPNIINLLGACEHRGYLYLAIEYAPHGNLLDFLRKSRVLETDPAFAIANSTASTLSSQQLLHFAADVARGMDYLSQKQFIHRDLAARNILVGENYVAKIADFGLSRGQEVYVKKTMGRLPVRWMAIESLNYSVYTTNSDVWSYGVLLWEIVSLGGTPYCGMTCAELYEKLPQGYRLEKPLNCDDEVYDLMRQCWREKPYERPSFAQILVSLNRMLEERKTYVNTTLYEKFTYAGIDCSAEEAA
T17 sequence (P23443 whole entry): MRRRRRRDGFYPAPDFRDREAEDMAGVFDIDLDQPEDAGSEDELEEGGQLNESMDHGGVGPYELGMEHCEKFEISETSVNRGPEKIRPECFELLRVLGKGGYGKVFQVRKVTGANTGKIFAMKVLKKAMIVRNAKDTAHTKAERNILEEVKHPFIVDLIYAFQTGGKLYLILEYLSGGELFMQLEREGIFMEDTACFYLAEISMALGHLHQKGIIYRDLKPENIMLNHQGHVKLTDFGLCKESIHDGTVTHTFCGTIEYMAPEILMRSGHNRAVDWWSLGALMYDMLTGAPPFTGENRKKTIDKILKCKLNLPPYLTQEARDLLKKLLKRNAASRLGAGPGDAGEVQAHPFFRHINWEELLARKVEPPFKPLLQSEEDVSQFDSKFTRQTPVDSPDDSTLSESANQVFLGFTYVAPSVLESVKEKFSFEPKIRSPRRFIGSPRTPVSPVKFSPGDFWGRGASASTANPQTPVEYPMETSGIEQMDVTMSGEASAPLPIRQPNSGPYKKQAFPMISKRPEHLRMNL

- Kinase activity (% of control) [1]: 117 % of control
- Kinase activity (% of control) [2]: 89 % of control
- Kinase activity (% of control) [3]: 95 % of control
- Kinase activity (% of control) [4]: 105 % of control
- Kinase activity (% of control) [5]: 101 % of control
- Kinase activity (% of control) [6]: 107 % of control
- Kinase activity (% of control) [7]: 102 % of control
- Kinase activity (% of control) [8]: 106 % of control
- Kinase activity (% of control) [9]: 94 % of control
- Kinase activity (% of control) [10]: 125 % of control
- Kinase activity (% of control) [11]: 89 % of control
- Kinase activity (% of control) [12]: 98 % of control
- Kinase activity (% of control) [13]: 113 % of control
- Kinase activity (% of control) [14]: 101 % of control
- Kinase activity (% of control) [15]: 109 % of control
- Kinase activity (% of control) [16]: 87 % of control
- Kinase activity (% of control) [17]: 88 % of control
- Kinase activity (% of control) [18]: 100 % of control
- Kinase activity (% of control) [19]: 121 % of control
- Kinase activity (% of control) [20]: 109 % of control
- Kinase activity (% of control) [21]: 88 % of control
- Kinase activity (% of control) [22]: 121 % of control
- Kinase activity (% of control) [23]: 88 % of control
- Kinase activity (% of control) [24]: 64 % of control
- Kinase activity (% of control) [25]: 90 % of control
- Kinase activity (% of control) [26]: 106 % of control
- Kinase activity (% of control) [27]: 93 % of control
- Kinase activity (% of control) [28]: 94 % of control
- Kinase activity (% of control) [29]: 99 % of control
- Kinase activity (% of control) [30]: 79 % of control
- Kinase activity (% of control) [31]: 106 % of control
- Kinase activity (% of control) [32]: 85 % of control
- Kinase activity (% of control) [33]: 106 % of control
- Kinase activity (% of control) [34]: 66 % of control
SMILES: O=C(N1CCCC1)N1CCC(n2cnc3c(-n4c(C(F)F)nc5ccccc54)nc(N4CCOCC4)nc32)CC1 [X-370]

Source: publication PMC4279406, “Simultaneous targeting of PI3Kδ and a PI3Kδ-dependent MEK1/2-Erk1/2 pathway for therapy in pediatric B-cell acute lymphoblastic leukemia” (Oncotarget, 2014)
